Laboratory results published in patent publication US20070105789A1, “Combinatorial chemotherapy treatment using Na+/K+ ATPase inhibitors” (priority 2004, published 2007).
In brackets after ≈: the same amount, converted by molar mass. Like-named read-outs stand apart in the source and are kept apart here.

How the values were obtained:
A549 Sentinel Line = experiment: Sentinel Line reporter assay (beta-gal, FACS); format: cell-based, human; conditions: A549 sentinel line, with Gemcitabine, 40 hrs
Experimental: The expression level of beta-galactosidase gene in sentinel lines was determined by using a fluorescent substrate fluorescein di-B-D-Galactopyranside (FDG, Marker Gene Tech, #M0250) introduced into cells by hypotonic shock. Cleavage by beta-galactosidase results in the production of free fluorescein, which is unable to cross the plasma membrane and is trapped inside the beta-gal positive cells. Briefly, the cells to be analyzed are trypsinized, and resuspended in PBS containing 2 mM FDG (diluted from a 10 mM stock prepared in 8:1:1 mixture of water: ethanol: DMSO). The cells were then shocked for 4 minutes at 37° C. and transferred to FACS tubes containing cold 1×PBS on ice. Samples were kept on ice for 30 minutes and analyzed by FACS in FLI channel.
Sentinel Line cells with beta-galactosidase reporter gene were plated at 1×10^5 cells/10 cm dish. […] After 40 hrs, the cells were trypsinized and the expression level of reporter gene was determined by FDG loading.
The reporter activity was measured by FACS analysis.

VEGF = VEGF secretion in tumor cells; format: cell-based; conditions: FIG. 8
HIF-1α [1] = experiment: HIF-1α induced under normoxia by PHD inhibitor L-mimosone, Hep3B Western blot; format: cell-based, human; conditions: 200 μM L-mimosone, 18 h
Experimental: Abundance of HIF-1α and β-actin was determined by western blotting.

[2] = test system: Panc-1 human pancreatic xenograft; experiment: Panc-1 human pancreatic tumor xenograft in nude mice; format: in vivo; conditions: Panc-1; BNC-4 15 mg/ml s.c. pump; Gemcitabine 40 mg/kg q3d×4
Source text: (§1) Female nude mice (nu/nu) between 5 and 6 weeks of age weighing approximately 20 g were implanted subcutaneously (s.c.) by trocar with fragments of human tumors harvested from s.c. grown tumors in nude mice hosts. […] Each group contains 8-10 mice, each of which was ear tagged and followed throughout the experiment.
(§2) The administration of drugs or controls began the day the animals were pair-matched (Day 1). […] Mice were weighed and tumor measurements were obtained using calipers twice weekly, starting Day 1. These tumor measurements were converted to mg tumor weight by standard formula, (W^2×L)/2. The experiment is terminated when the control group tumor size reached an average of about 1 gram. Upon termination, the mice were weighed, sacrificed and their tumors excised. The tumors were weighed and the mean tumor weight per group was calculated.
(§3) The control animals received pumps containing vehicle (50% DMSO in DMEM). The mice treated with standard chemotherapy agent received intra-peritoneal injections of Gemcitabine at 40 mg/kg every 3 days for 4 treatments (q3d×4). Each data point represent average tumor weight (n=8) and error bars indicate SEM.
as §3

[3] = test system: Caki-1 human renal cancer xenograft; format: in vivo, nude mice; conditions: Caki-1
Source text: as §1, §2

Na+/K+-ATPase [4] = target: T1, Na+/K+-ATPase (Canis lupus familiaris, UniProt P50997); experiment: Na+/K+-ATPase inhibition; format: biochemical, dog; conditions: read-out: IC50 for inhibition of Na+/K+-ATPase
T1 construct: enzyme preparation from dog kidney (Sigma); purchased Sigma; host or cells: dog kidney tissue
Experimental: (§4) Anti-prolerafitive IC50 values were determined by MTS assay using an A549 cell line. Na^+/K^+-ATPase inhibition IC50 values were obtained using enzyme preparation from dog kidney (Sigma).

A549 cell line = experiment: anti-proliferation MTS assay in A549 cell line; format: cell-based; conditions: Homo sapiens
Experimental: as §4

HIF-1α [5] = experiment: Western blot using anti-HIF-1α antibody (Example XVI); format: cell-based
[6] = test system: panel of 10 cancer cell lines; experiment: cytotoxicity against a panel of 10 cancer cell lines; format: cell-based; conditions: read-out: median IC50
[7] = effective plasma concentration and effective oral dose in patients; format: in vivo; conditions: Homo sapiens, cancer indications, 1.5 to 3 times that of cardiac indications, read-out: median effective concentration (EC50) of free drug
[8] = steady state serum level of about 50 ng/mL, xenograft nude mouse model
Na+/K+-ATPase [9] = conditions: Erdmann E 1978; cited from earlier work
[10] = cited from earlier work
[11] = at therapeutic plasma level; cited from earlier work
[12] = cited from earlier work; remark: listed apart in the source
rats = conditions: cited from earlier work
cats = conditions: cited from earlier work
[13] = 12 healthy individuals, 2×0.5 mg for 8 days, radio-immunoassay

## C[C@@H]1OC(OC2C=C3CCC4C(CC[C@]5(C)[C@@H](c6ccc(=O)oc6)CC[C@]45O)[C@@]3(C)CC2)[C@H](O)[C@H](O)[C@H]1O (stereo partly drawn) [BNC-4, proscillaridin]
A549 Sentinel Line
  effect on Gemcitabine-induced reporter activity: significantly shift the reporter activity to the left
VEGF
  secretion of VEGF in tumor cells: directly or indirectly inhibits
HIF-1α [1]
  HIF-1α accumulation induced by L-mimosone: eliminated HIF-1α accumulation by L-mimosone
[2]
  TGI: about 87%
[3]; BNC-4 5 mg/ml s.c. pump
  TGI: 43%
[3]; BNC-4 15 mg/ml s.c. pump
  TGI: 73%
Na+/K+-ATPase [4]
  IC50: ~130 nM
A549 cell line
  IC50: ~2.1 nM
HIF-1α [5]; 0.1 μM
  HIF-1α expression: completely inhibits
HIF-1α [5]; 1 μM
  HIF-1α expression: completely inhibits
[6]
  IC50: ~23 nM
[7]
  EC50: 1.2 to 2.5 ng/mL (≈ 2.26 to 4.71 nM)
[8]
  TGI (tumor growth inhibition): greater than 60%
Na+/K+-ATPase [9]
  order of Na+/K+-ATPase-inhibition: Ouabain<Digoxin<Proscillaridin
[10]; [13]
  Tmax: 48 ± 30 min
  median AUC: 385.0 ± 43.6 ng·h/mL
  median Cmax: 23.5 ± 2.6 ng/mL
[10]; according to the literature
  plasma half-life in human: about 40 hours
[10]; after oral administration
  measurable unconjugated drug as share of the administered quantity: 7%
[10]; cardiac patients
  median plasma half-life (T1/2): up to 49 hours
[10]; dosage form with acid-resistant (enteric) coating
  absolute bioavailability: about 35%
[10]; in vivo
  Volume-of-Distribution (VD): 562 L
  daily clearance: ~35%
  drug and its metabolites excreted by the bile: Greater than 99%
  total level of metabolism: > 95%
  unchanged drug excreted by the kidneys: less than 1%
[10]; oral
  time of second, longer-lasting blood level peak: about 1 hour
  time of third plasma peak after dosing: about 10 hours
[10]; patients taking antacids
  higher absorption with decreased stomach acid production: up to 60%
[10]; simple oral formulations
  oral absorption, accepted median: about 20%
[11]
  bound to plasma protein: about 85%
[12]; 0.25 to 0.5 mg/d i.v. for four days before surgery, 50 patients
  tolerability in cancer patients: well tolerated by all cancer patients with no appearance of either gastrointestinal or cardiac side effects
[12]; 47 clinical studies, 3740 patients
  patients exhibiting side-effects: about 6.3%
[12]; 47 clinical studies
  reported cases where therapy could be resumed after a brief hiatus: > 95%
[12]; 1067 patients observed for up to 3 years
  patients taken off the treatment for negative side effects: 0.7%
[12]; cardiac patients
  well tolerated dose: up to 1.5 mg/d
[12]; cardiac patients, listed as Proscillaridin A
  well tolerated dose: ~1.5 mg/day
[12]; cardiologically-normal individuals
  well tolerated dose: up to 3.5 mg/d
[12]; healthy individuals
  dose producing typical intoxication symptoms: above 4 mg p.o./d
[12]; healthy volunteers, 1.5 mg daily for 20 days
  side effects: no negative side effects
[12]; nausea, seasickness, headache, vomiting, stomach cramps, diarrhea
  average level of side effects in clinical reports: 5%
[12]; review of a total of 3740 patients
  long-term or late-appearing chronic toxicity: none of these cases noted any long-term or late-appearing chronic toxicity
rats; adult
  LD50 p.o.: 0.25 mg/kg
rats; young animals (female)
  LD50 p.o.: 76 mg/kg
cats
  intravenous toxicity: 0.193 mg/kg
